Values quoted from earlier work, collected in patent publication US20150147306A1, “COMPOSITION FOR TREATING A CIRCADIAN RHYTHM DISORDER” (priority 2012, published 2015).

Conditions: in humans

COc1ccc2[nH]cc(CCNC(C)=O)c2c1 [melatonin]
half-life in the serum: 35 to 50 min
